Measurements reported in ChEMBL document CHEMBL5532635, “The role of natural anti-parasitic guided development of synthetic drugs for leishmaniasis” (Eur J Med Chem, 2023).
pEC50, pIC50: −log10 of the molar value. ≈ marks a conversion by molar mass, not a printed value.

What was measured:
Leishmania amazonensis [1] = test: Antileishmanial activity against Leishmania amazonensis IFLA/BR/1967/PH8 amastigotes infected in mouse peritoneal macrophage assessed as inhibition of parasite growth measured after 24 hrs by Giemsa staining based analysis; assay type: functional, organism-based; conditions: IFLA/BR/1967/PH8, Peritoneal macrophage cell
Leishmania major [2] = test: Antileishmanial activity against Leishmania major amastigotes assessed as reduction in parasite growth incubated for 72 hrs by MTT assay; assay type: functional, organism-based
Leishmania major [3] = test: Antileishmanial activity against Leishmania major promastigotes assessed as reduction in parasite growth incubated for 72 hrs by MTT assay; assay type: functional, organism-based
Leishmania tropica [4] = test: Antileishmanial activity against Leishmania tropica promastigotes incubated for 24 hrs measured by alamar blue staining based fluorescence analysis; assay type: functional, organism-based
Leishmania tropica [5] = test: Antileishmanial activity against Leishmania tropica amastigotes incubated for 24 hrs measured by alamar blue staining based fluorescence analysis; assay type: functional, organism-based
Leishmania amazonensis [6] = test: Antileishmanial activity against Leishmania amazonensis promastigotes assessed as reduction in parasite viability after 72 hrs by CCK-8 assay; assay type: functional, organism-based
Leishmania amazonensis [7] = test: Antileishmanial activity against Leishmania amazonensis promastigotes; assay type: functional, organism-based
Leishmania infantum [8] = test: Antileishmanial activity against Leishmania infantum promastigote assessed as reduction in parasite growth after 72 hrs by MTT assay; assay type: functional, organism-based
Leishmania amazonensis [9] = test: Antileishmanial activity against Leishmania amazonensis promastigotes assessed as inhibition of parasite growth at 10 uM relative to control; assay type: functional; parameters: scale not given: the % may be the effect or the level left
Leishmania amazonensis [10] = test: Antileishmanial activity against Leishmania amazonensis promastigotes assessed as reduction in parasite viability measured after 48 hrs by alamar blue analysis; assay type: functional, organism-based
Leishmania donovani [11] = test: Antileishmanial activity against Leishmania donovani promastigotes assessed as inhibition of parasite growth incubated for 4 hrs by MTT assay; assay type: functional, organism-based
Leishmania infantum [12] = test: Antileishmanial activity against Leishmania infantum assessed as reduction in parasite growth; assay type: functional, organism-based
Leishmania donovani [13] = test: Antileishmanial activity against Leishmania donovani BHU575 promastigotes assessed as cell viability by MTT assay; assay type: functional, organism-based
Leishmania tropica [14] = test: Antileishmanial activity against Leishmania tropica promastigotes assessed as inhibition of parasite growth; assay type: functional, organism-based
Leishmania infantum [15] = test: Antileishmanial activity against Leishmania infantum amastigotes infected in human THP-1 cells assessed as reduction in parasite growth incubated for 72 hrs by high content imaging analysis; assay type: functional, organism-based; conditions: THP-1, 72 h
Leishmania major [16] = test: Antileishmanial activity against Leishmania major promastigote assessed as inhibition of parasite growth; assay type: functional, organism-based
Leishmania infantum [17] = test: Antileishmanial activity against Leishmania infantum promastigotes assessed as reduction in parasite viability measured after 48 hrs by MTT assay; assay type: functional, organism-based
Leishmania major [18] = test: Antileishmanial activity against Leishmania major promastigotes assessed as parasite growth inhibition incubated for 24 hrs by Alamar blue staining based assay; assay type: functional, organism-based
Leishmania donovani [19] = test: Antileishmanial activity against Leishmania donovani promastigotes assessed as inhibition of parasite growth measured after 24 hrs by Alamar blue based analysis; assay type: functional, organism-based
Leishmania amazonensis [20] = test: Antileishmanial activity against Leishmania amazonensis MHOM/BR/77/LTB001 assessed as parasite growth inhibition; assay type: functional, organism-based
Leishmania donovani [21] = test: Antileishmanial activity against Leishmania donovani promastigotes assessed as reduction in parasite growth; assay type: functional, organism-based
Leishmania amazonensis [22] = test: Antileishmanial activity against Leishmania amazonensis amastigotes assessed as reduction in parasite growth; assay type: functional, organism-based
Leishmania amazonensis [23] = test: Antileishmanial activity against Leishmania amazonensis MHOM/BR/1989/166MJO promastigotes infected in mouse macrophage assessed as parasite growth inhibition measured after 72 hrs by MTT assay; assay type: functional, organism-based
J774.A1 = test: Cytotoxicity against mouse J774.A1 cells assessed as reduction in cell viability incubated for 24 hrs by MTT assay; assay type: functional
Leishmania amazonensis [24] = test: Antileishmanial activity against Leishmania amazonensis MHOM/BR/1989/166MJO promastigotes assessed as reduction in […] growth; assay type: functional, organism-based
Leishmania infantum [25] = test: Antileishmanial activity against Leishmania infantum MON-1 promastigotes assessed as reduction in parasite viability measured after 48 hrs by MTT assay; assay type: functional, organism-based; conditions: MON-1, 48 h
Leishmania infantum [26] = test: Antileishmanial activity against Leishmania infantum MHOM/MA/67/ITMAP263 promastigotes expressing red-shifted luciferase gene infected in mouse J774 cells incubated for 24 hrs by microplate luminometer analysis; assay type: functional, organism-based; conditions: MHOM/MA/67/ITMAP263, J774, 24 h
Leishmania amazonensis [27] = test: Antileishmanial activity against Leishmania amazonensis promastigotes assessed as inhibition of parasite growth; assay type: functional, organism-based
Leishmania infantum [28] = test: Antileishmanial activity against Leishmania infantum MHOM/BR/70/BH46 promastigotes assessed as inhibition of parasite growth incubated for 72 hrs by Neubauer chamber based analysis; assay type: functional, organism-based; conditions: MHOM/BR/70/BH46, 72 h
Leishmania donovani [29] = test: Antileishmanial activity against Leishmania donovani promastigotes at 50 uM; assay type: functional
Leishmania donovani [30] = test: Antileishmanial activity against Leishmania donovani promastigotes at 25 uM; assay type: functional

O=C(CC[Se]c1ccnc2cc(Cl)ccc12)Nc1ccc([N+](=O)[O-])cc1 gave a pIC50 (Leishmania amazonensis [1]) of 4.97.

For COc1c(O[C@@H]2O[C@H](CO)[C@@H](O)[C@H](O)[C@H]2O)cc2c(c1OC)-c1ccc(OC)c(=O)cc1[C@@H](NC(C)=O)CC2, the IC50 (Leishmania major [2]) was 4 µg/mL (≈ 7.31 µM) and the IC50 (Leishmania major [3]) was 0.2 µg/mL (≈ 0.365 µM).

Nc1ccc(C(=O)N/N=C2\C(=O)N(CC(O)COc3cc(=O)oc4ccccc34)c3ccccc32)cc1 (configuration not stated) was tested, and the pIC50 (Leishmania tropica [4]) was 5.79 and the pIC50 (Leishmania tropica [5]) was 5.55.

For CC1(C)C=Cc2c(ccc3c2OCC2c4cc5c(cc4OC32)OCO5)O1 (configuration not stated) [LEIOCARPIN], the pIC50 (Leishmania amazonensis [6]) was 4.94, the pIC50 (Leishmania amazonensis [7]) was 5.15 and the pIC50 (Leishmania infantum [8]) was 4.81.

With CC[C@H]1C[C@@H]2CN3CCc4c([nH]c5ccccc45)[C@](C(=O)OC)(C2)[C@H]13 [CORONARIDINE] the Activity (Leishmania amazonensis [9]) was 97% and the IC50 (Leishmania amazonensis [10]) was 12.5 µg/mL (≈ 36.9 µM).

Work on CCCCCCCCCCCCCCCCOP(=O)([O-])OCC[N+](C)(C)C [MILTEFOSINE] yielded a pIC50 (Leishmania donovani [11]) of 5.50.

In the case of Cc1cc(O)c(C(=O)Nc2ccccc2)c(=O)n1Cc1cccc(Cl)c1Cl, the pIC50 (Leishmania infantum [12]) was 4.26.

In the case of CC1=CCC[C@H]2[C@](C)(Cc3cc(O)ccc3O)[C@@H](C)CC[C@]12C [AVAROL], the pIC50 (Leishmania donovani [13]) was 5.13, the pIC50 (Leishmania tropica [14]) was 5.15 and the pIC50 (Leishmania infantum [15]) was 5.50.

For COc1c2ccoc2nc2c(OC)cccc12 [GAMMA-FAGARINE], the pIC50 (Leishmania major [16]) was < 4.13.

CCOC(=O)c1cc2c([nH]c3ccccc32)c(-c2ccccn2)n1 showed a pEC50 (Leishmania infantum [17]) of 5.47.

With C[C@@H]1CC[C@@]2(C)C(C(=O)O)=CCC[C@@H]2[C@@]1(C)CCc1ccoc1 the pIC50 (Leishmania major [18]) was 5.00 and the pIC50 (Leishmania donovani [19]) was 5.00.

CN[C@@H]1C[C@H]2O[C@@](C)([C@@H]1OC)n1c3ccccc3c3c4c(c5c6ccccc6n2c5c31)C(=O)NC4=O gave a pIC50 (Leishmania amazonensis [20]) of 8.15, a pIC50 (Leishmania donovani [21]) of 9.00 and a pIC50 (Leishmania amazonensis [22]) of 9.70.

O=c1c2ccccc2nc(/C=C/c2ccc([N+](=O)[O-])cc2)n1-c1ccccc1 showed a pIC50 (Leishmania donovani [11]) of 7.68.

Work on Cc1cc(O)c(C(=O)Nc2ccccc2)c(=O)n1Cc1ccc(Cl)cc1 yielded a pIC50 (Leishmania infantum [12]) of 4.26.

In the case of COc1cc(C(=O)/C=C/c2ccc([N+](=O)[O-])cc2)c(C(C)=O)c2c(OC)cccc12, the pIC50 (Leishmania amazonensis [23]) was 4.73, the CC50 (J774.A1) was 373 µM and the pIC50 (Leishmania amazonensis [24]) was 5.48.

Work on COc1cc(OC)c(C(=O)/C=C/c2cccc(C)c2)c([N+](=O)[O-])c1 yielded a pIC50 (Leishmania infantum [25]) of 4.13 and a pEC50 (Leishmania infantum [26]) of 6.11.

With COc1c2c(cc3c1-c1ccc(OC)c(=O)cc1[C@@H](NC(C)=O)CC3)OCO2 the IC50 (Leishmania major [2]) was 8.7 µg/mL (≈ 22.7 µM) and the IC50 (Leishmania major [3]) was 0.4 µg/mL (≈ 1.04 µM).

COc1ccc2nc(C(=O)NCCCN(C)C)ccc2c1 gave a pIC50 (Leishmania amazonensis [1]) of 5.25.

Compound Cc1cc(O)c(C(=O)Nc2ccccc2)c(=O)n1Cc1ccc(F)cc1 has a pIC50 (Leishmania infantum [12]) of 4.26.

COc1cc2c(c(OC)c1O)-c1ccc(OC)c(=O)cc1[C@@H](NC(C)=O)CC2 [2-DESMETHYLCOLCHICIN] was tested, and the IC50 (Leishmania major [2]) was 10.2 µg/mL (≈ 26.5 µM) and the IC50 (Leishmania major [3]) was 0.5 µg/mL (≈ 1.3 µM).

COC(=O)C1=CCC[C@@H]2[C@@](C)(CCc3ccco3)[C@H](C(=O)O)CC[C@@]12C gave a pIC50 (Leishmania amazonensis [27]) of 6.96.

In the case of COC1=C(C)O[C@H]2C[C@@]1(OC)n1c3ccccc3c3c4c(c5c6ccccc6n2c5c31)C(=O)NC4, the pIC50 (Leishmania amazonensis [6]) was 7.65 and the pIC50 (Leishmania donovani [21]) was < 7.05.

CCc1ccc(NC(=S)N/N=C\c2c[nH]c3c(C)cc(Br)cc23)cc1 was tested, and the pIC50 (Leishmania infantum [28]) was 5.36.

In the case of CC1=CCC[C@H]2[C@](C)(CC3=CC(=O)C=CC3=O)[C@@H](C)CC[C@]12C [AVARONE], the pIC50 (Leishmania donovani [13]) was 4.55 and the pIC50 (Leishmania tropica [14]) was 4.69.

In the case of COc1cc2c(c(OC)c1OC)-c1ccc(OC)c(=O)cc1[C@@H](NC(=O)CO)CC2 [COLCHIFOLINE], the IC50 (Leishmania major [2]) was 14 µg/mL (≈ 33.7 µM) and the IC50 (Leishmania major [3]) was 0.7 µg/mL (≈ 1.68 µM).

Work on Cc1ccccc1C(=O)N/N=C1\C(=O)N(CC(O)COc2cc(=O)oc3ccccc23)c2ccccc21 (configuration not stated) yielded a pIC50 (Leishmania tropica [4]) of 5.43 and a pIC50 (Leishmania tropica [5]) of 5.38.

With COc1cc(/C=C2/Oc3cc(O)ccc3C2=O)cc(OC)c1 the Activity (Leishmania donovani [29]) was 109% and the Activity (Leishmania donovani [30]) was 106%.
